# Reference: patent US20260297035A1, “PROTEIN KINASE INHIBITORS AND USES THEREOF” (DELiver Therapeutics, Inc., priority 2023, published 2026)
# Like-named read-outs stand apart in the source and are kept apart here.
# Legend:
# ABL1 T315I = target: T1, ABL1 T315I (Homo sapiens, UniProt P00519, T315I); test: Z′-LYTE assay, ABL1 T315I; format: biochemical
# T1 construct: The ABL1 variant polypeptides utilized contained the same polypeptide as the “isoahABL1(wt)” polypeptide except that each contained one corresponding amino acid substitution
# Text: (§1) This Example describes a cell-free assay utilized to identify candidate compounds that bind to and inhibit protein kinase (PK) and PK variants. One assay is referred to as a “Z′-LYTE assay” and is an example of a labeled peptide cleavage assay. The fluorescence-based assay relies on the differential sensitivity of a small, dual-end-labelled peptide to cleavage by a protease, dependent on the phosphorylation state of the peptide (FIG. 1). The peptide substrate is end-labelled with two distinct fluorophores that comprise a Fluorescence Resonance Energy Transfer (FRET) pair.
# (§2) In the absence of inhibitor, the kinase transfers the gamma-phosphate from ATP to the single, unique tyrosine, serine or threonine in the synthetic FRET peptide. The reaction conditions are titrated such that 10-40% of the peptide substrate is phosphorylated. In a second reaction, a site-specific protease that only recognizes and cleaves the non-phosphorylated FRET peptide is added. Cleavage interferes with FRET between the donor (i.e., coumarin) and the acceptor (i.e., fluorescein) fluorophores on the FRET-peptide substrate, unlike the phosphorylated, uncleaved peptide.
# (§3) The Test Compounds are screened in 1% DMSO (final) in the well.
# (§4) All Peptide/Kinase Mixtures are diluted to a 2× working concentration in the appropriate Kinase Buffer. The 2×ABL1 polypeptide/Tyr 02 substrate peptide mixture is prepared in 50 mM HEPES pH 7.5, 0.01% BRIJ-35, 10 mM MgCl2, 1 mM EGTA. The final 10 μL Kinase Reaction contains 0.3-1.2 ng ABL1 (or 1.36-6 ng ABL1(T315I)) and 2 μM Tyr 02 in 50 mM HEPES, pH 7.5, 0.01% BRIJ-35, 10 mM MgCl2, 1 mM EGTA. After the 1-hour Kinase Reaction incubation, 5 μL of a 1:128 dilution of Development Reagent A is added. The ABL1(wt) polypeptide utilized for the assay described in this Example was the “isoahABL1(wt)” polypeptide described herein (SEQ ID NO:4), which is referred to as “ABL1” in Table 1 and “ABL1(wt)” or “WT” in Table 3 of this Example. The ABL1 variant polypeptides utilized contained the same polypeptide as the “isoahABL1(wt)” polypeptide except that each contained one corresponding amino acid substitution chosen from E255K, F317I, F317L, G250E, T315I or Y253F. […]
# (§5) All ATP Solutions are diluted to a 4× working concentration in Kinase Buffer (50 mM HEPES, pH 7.5, 0.01% BRIJ-35, 10 mM MgCl2, 1 mM EGTA). The ATP Km apparent (Km app) is previously determined using a Z′-LYTE assay.
# (§6) Bar-coded Corning, low volume NBS, black 384-well plate (Corning Cat. #4514) • 1. […] Read on fluorescence plate reader and analyze the data
# ABL1(wt) = ABL1(wt) (Homo sapiens, UniProt P00519); test: Z′-LYTE assay (labeled peptide cleavage), ABL1(wt); format: biochemical
# Text: as §1, §2, §3, §4, §5, §6
# A known inhibitor control standard curve, 10-point titration, is run for each individual kinase on the same plate as the kinase to ensure the kinase is inhibited within an expected IC50 range previously determined. […]
# NALM-21 = test: In vitro cytotoxic activity (CellTiterGlo), NALM-21 (ALL); format: cell-based; settings: Homo sapiens; 48-hours; read-out: NALM-21 LD50
# Procedure: (§7) Non-metabolized targeted toxicity, or general toxicity, of compounds was assessed by treating a panel of selected cell lines in culture with a dilution series of test compounds and the lethal dose that will kill half of the cells (i.e., the LD50) was determined. Compounds herein were assayed against a panel of cytokine-independent Philadelphia chromosome (BCR-ABL1 translocation) positive (Ph+) leukemia and lymphoma cell lines along with several control cell lines that were ABL1-independent. The panel included murine cell lines BaF3-wildtype (wt), BaF3-mutants (BaF3-wt cells engineered to be reliant on various kinase domain mutations with the BCR-ABL1 fusion protein), and various ALL and CML human cell lines, including SD-1, TOM-1, NALM-21, K562, Jeko-1, BV173, and KCL-22.
# (§8) To test the cytotoxic activity of compounds herein, 1.6E4 cells were plated in 96-well plates at a final volume of 135 μL per well. Compounds were then added to the wells. In general, final concentrations of compounds started at a maximum concentration of […] and were diluted by half-log concentrations down to a final concentration of 0.316 nM. However, different cell lines required varying drug concentration ranges for optimal LD50 calculations. To create half-log dilutions, 40 mM DMSO solutions of compounds were diluted in half-log iterations to generate 400× starting concentration of compounds in DMSO. The 400× compound solutions were then diluted by 40-fold by adding 5 μL of 400× DMSO stock to 195 μL cell culture media, generating 10× drug concentrations in cell culture media. Then 15 μL of the 10× drug solutions were added to the 135 μL volume of cell suspension, resulting in 1× final drug concentrations with 0.25% DMSO in all wells. 48-hours after adding compounds, cells were measured for relative viability to generate cytotoxicity curves associated with the varying concentrations of compounds. […] LD50 values were measured by normalizing luminescence intensity to the lowest drug concentration. GraphPad Prism was used to plot and calculate LD50 values from the cytotoxic kill curves. Curves were fit to a non-linear regression model, with compound concentration vs. response and variable slope (four parameters).
# K562 = test: In vitro cytotoxic activity (CellTiterGlo), K562 (CML); format: cell-based; settings: Homo sapiens, 48-hours, read-out: K562 LD50
# Procedure: as §7, §8
# [1] = non-GLP multi-dose toxicity study (dose escalation, daily IP injection); format: in vivo, mouse (6-week-old Balb/c females); settings: mice; for tolerability: daily IP
# Procedure: An initial non-GLP multi-dose toxicity study of Cmpd11 and Cmpd66 was performed, which included a comparison to COM1 and COM3 clinical compounds. […] Body weights were recorded 2× weekly for healthy mice followed by weekly in the recovery phase. Blood draws were taken, retro-orbitally, every other week (for a total of three blood draws per group) to determine the plasma levels of compounds throughout the duration of the study (unless mice were euthanized prior to completion of the 28-day dosing period). […] Any animals showing more than 9% weight loss were weighed every day and animals were euthanized after a weight loss of 15% or more or evidence of high distress (e.g., listless, hunched posture, high grimace score). Also, plasma samples were drawn at euthanasia. Control groups included vehicle only and no manipulation.
# A summary of the study is illustrated in FIG. 14. There are six groups with 90 mice total and following is an overview of groups for the study.
# The following are criteria for dose escalation and staggering of group starting points. Animals in each group are monitored after the initial dose for 3-4 days, and if there is no observed dose-limiting toxicity (DLT), then a separate cohort of naïve animals are administered the next higher dose level. Note that each cohort of animals receives the same drug and drug dose for the duration of the 28-day dosing period unless euthanasia is required. Animals in the second, dose-escalated group, are then monitored for 3-4 days, and if there is no observed DLT, animals from a fresh cohort are administered the next higher dose level, while continuing with the former cohorts up to 5 dose levels total. Animals in each cohort then are monitored after the third dose for 7 days, and if there is no observed DLT, then animals are administered the next higher doses. If DLT is observed during a monitoring period for any dose level, a subsequent dose is reduced by a level that is intermediate between the highest tolerated level tested and the minimum toxic level tested.
smiles,measurement,setting,value
CNC(=O)c1ccc(C(=O)Nc2cc(Nc3ncc4cccc(-c5ccc(F)cc5OC(C)C)c4n3)ccc2C)cc1 [Cmpd10],IC50,"ABL1 T315I; class by IC50 values in Table 5, read-out: inhibitor class of ABL(T315I) according to IC50",< 20 nM
same,IC50,"ABL1 T315I; test compounds, Z′-LYTE, read-out: IC50 values for test compounds, ABL1(T315I)",3.86 nM
same,IC50,"ABL1(wt); class by IC50 values in Table 5, read-out: inhibitor class of ABL1(wt) according to IC50",< 20 nM
same,IC50,"ABL1(wt); test compounds, Z′-LYTE, read-out: IC50 values for test compounds, ABL1(wt)",11.2 nM
Cc1ccc(C(=O)Nc2ccc(CN3CCN(C)CC3)c(C(F)(F)F)c2)cc1C#Cc1cnc2cccnn12 [ponatinib],IC50,NALM-21,3600 nM
same,IC50,K562,3250 nM
"Cc1ccc(Nc2ncc3cccc(-c4ccc(F)cc4OC(C)C)c3n2)cc1NC(=O)C1CCN(C)CC1 [Cmpd66, N-(5-((8-(4-fluoro-2-isopropoxyphenyl)quinazolin-2-yl)amino)-2-methylphenyl)-1-methylpiperidine-4-carboxamide]",IC50,NALM-21,133 nM
same,IC50,K562,141 nM
same,tolerability relative to COM1,"[1]; at doses required to reach the in vitro K562-Luc EC50 plasma levels in vivo, early results",more tolerable than COM1
same,tolerability,"[1]; 1.5 mg/kg, through day 24",well tolerated
same,tolerability,"[1]; 4.5 mg/kg, at day 21",well tolerated
same,tolerability,"[1]; maximum dose of 18 mg/kg, at day 14",well tolerated
"Cc1ccc(Nc2ncc3cccc(-c4ccc(F)cc4OC(C)C)c3n2)cc1NC(=O)CN1CCN(C)CC1 [Cmpd58, N-(5-((8-(4-fluoro-2-isopropoxyphenyl)quinazolin-2-yl)amino)-2-methylphenyl)-2-(4-methylpiperazin-1-yl)acetamide]",IC50,NALM-21,134 nM
same,IC50,K562,124 nM
"Cc1ccc(Nc2ncc3cccc(-c4ccc(F)cc4OC(C)C)c3n2)cc1NC(=O)c1ccc(C(=O)N2CCN(C)CC2)cc1 [Cmpd44, N-(5-((8-(4-fluoro-2-isopropoxyphenyl)quinazolin-2-yl)amino)-2-methylphenyl)-4-(4-methylpiperazine-1-carbonyl)benzamide]",IC50,NALM-21,281 nM
same,IC50,K562,300 nM
